ChEMBL document CHEMBL3886479, “1-H-pyrrolo[2,3-b]pyridine derivatives” (2016)

Molecular target: T1, 3-phosphoinositide-dependent protein kinase 1 (Homo sapiens, UniProt O15530)
T1 sequence (O15530 whole entry): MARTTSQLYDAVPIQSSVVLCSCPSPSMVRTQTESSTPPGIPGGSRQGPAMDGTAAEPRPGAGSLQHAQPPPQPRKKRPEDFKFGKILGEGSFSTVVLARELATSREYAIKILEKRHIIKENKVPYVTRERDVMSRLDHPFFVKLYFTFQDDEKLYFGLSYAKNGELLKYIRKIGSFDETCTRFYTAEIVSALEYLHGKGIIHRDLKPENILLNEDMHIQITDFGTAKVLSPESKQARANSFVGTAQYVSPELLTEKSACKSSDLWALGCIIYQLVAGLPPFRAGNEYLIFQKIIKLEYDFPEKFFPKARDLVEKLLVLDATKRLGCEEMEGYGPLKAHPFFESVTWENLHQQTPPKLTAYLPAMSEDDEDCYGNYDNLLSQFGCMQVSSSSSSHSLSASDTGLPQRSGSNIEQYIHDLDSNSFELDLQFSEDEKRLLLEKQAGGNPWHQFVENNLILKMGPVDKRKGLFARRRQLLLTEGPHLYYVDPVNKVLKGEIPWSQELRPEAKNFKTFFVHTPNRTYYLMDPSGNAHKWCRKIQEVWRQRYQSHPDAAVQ
Test: Luminex Assay: The cellular assay for the determination of the PDK1 kinase activity is carried out as a Luminex assay in the 96-well format. PC3 cells are sown at 20,000 cells per well in 100 ul of medium (45% of […]/45% of Ham's F12/10% of FCS) and incubated on the following day for 30 min with a serial dilution of the test substance (7 concentrations) under serum-free conditions. The cells are subsequently lysed using 90 ul of lysis buffer (20 mM tris/HCl pH 8.0, 150 mM NaCl, 1% of NP40, 10% of glycerol, 1% of phosphatase inhibitor I, 1% of phosphatase inhibitor II, 0.1% of protease inhibitor cocktail III, 0.01% of benzonase) per well, and the lysates are separated off from insoluble cell constituents by means of centrifugation through a 96-well filter plate (0.65 um). The lysates are incubated overnight at 4° C. with shaking with Luminex beads to which an anti-total PKB antibody is coupled. The detection is carried out on the following day by addition of a phospho-T308-PKB antibody and a species-specific peroxidase-labelled secondary antibody.
Assay type: cell-based
Settings: pc-3

IC50: 7.1 nM
Structure (SMILES): Cn1cc(-c2cnc3[nH]cc(-c4cc(N(CCC#N)c5ccccc5)nc(N)n4)c3c2)cn1
